Non-standard residues stand in square brackets, D forms with d. Residues, ends and D or L forms follow the SMILES beside them. *: point of attachment. Sta = CC(C)C[C@H](N)[C@@H](O)CC(=O)O; Isovaleryl = CC(C)CC(=O)*
How the values were obtained:
[1] = system: proline specific protease; assay: Effect of pepstatin on the proline specific protease; format: biochemical, Aspergillus niger; conditions: pepstatin 1.67 microgram/ml
Experimental: Prerequisite for a successful enzyme therapy according to the present application is an efficient degradation of dietary proteinaceous material in the stomach. […] Citrate/HCl buffers of 0.2 mol/l were used for obtaining the required acid pH conditions. […] Residual activities of the proline specific protease were measured kinetically at 405 nm using the synthetic substrates Ala-Ala-Pro-pNA (Bachem, Switzerland). […] Absorbance was measured kinetically for 10 min at 405 nm at 30° C. making use of a TECAN Genios MTP Reader (Salzburg, Vienna).

[2] = system: Sodium caseinate; assay: Casein hydrolysis under simulated stomach conditions (visual impression, di-/tripeptides, free amino acids); format: biochemical; conditions: 2.5 mg/ml caseinate suspension, pH 4.0, 37 degrees C., 0.25 mg/ml of each enzyme

Row | Compound | inhibitory effect on the proline specific protease [1] | Visual impression after 45″ [2] | Visual impression after 90″ [2]
1 | CC(C)CC(=O)N[C@H](C(=O)N[C@H](C(=O)N[C@@H](CC(C)C)[C@@H](O)CC(=O)N[C@@H](C)C(=O)N[C@@H](CC(C)C)[C@@H](O)CC(=O)O)C(C)C)C(C)C [pepstatin, Pepstatin] (Isovaleryl-VV[Sta]A[Sta]-OH) | no inhibitory effect | – | –
2 | Pepsin: gastric aspartic endoprotease (EC 3.4.23.1) from porcine stomach mucosa, Sigma | – | turbid | clear
